A melting point compilation (Tetko et al.; mined from patent text by program, amines drawn as free bases though some values may be those of a salt)

Point of comparison: `NNc1nccc(-c2ccc(Oc3ccccc3)cc2)c1Cl`, melting point 173 °C. Against it:
- O=C(Nc1ccc(C(F)(F)F)cc1)NC1CCN(S(=O)(=O)c2cccc(C(F)(F)F)c2)CC1 — higher, 246 to 251 °C
- CCS(=O)c1cnc(Cl)c(Cl)c1 (configuration not stated) — lower, 78 to 79 °C
- COCCN1C(=O)C(C)(C)C(=O)N(C)c2cc(CN(CCn3cc(C)c4occc4c3=O)Cc3cccnc3C)ccc21 — lower, 127 to 130 °C
- COC(=O)CCc1nc(-c2cccc(NC(=O)OC(C)(C)C)c2)no1 — lower, 90 to 91 °C
- Cc1cc(C)cc(C(=O)Cc2ccncc2)c1 — lower, 90 to 91 °C
- Clc1ccc2ccc(COc3ccc(CN4CCc5cccc(CCc6nnn[nH]6)c54)cc3)nc2c1 — lower, 69 to 73 °C
- COC(=O)c1ccc(Cn2c(=O)c3cc(C(=O)NCc4ccc(OC)cc4)sc3n(C)c2=O)cc1C — higher, 179 to 181 °C
- Clc1cc(CBr)c2noc(-c3ccc(Br)cc3)c2c1 — lower, 147 to 150 °C
- CN1CCCC(O)(c2cccc3[nH]ccc23)C1 (configuration not stated) — higher, 250 °C
- O=c1ncc(Cl)cn1CC(O)CCl (configuration not stated) — lower, 159 to 162 °C
- CCCc1cc(Cl)c2oc(Cc3ccc(O)cc3)c(C)c2c1O — lower, 142 to 143 °C
- O=C(O)c1cccc(C(=O)c2ccc(Cl)cc2)c1 — higher, 228 °C
- C#CCCOc1cc(C=O)ccc1OC — lower, 63 to 65 °C
- N=C(Nc1ccccc1-c1ccccc1)N1CCOCC1 — lower, 153 to 154 °C
- COC(=O)c1cccc(Nc2nccc(-c3ccnc(NCCCO)c3)n2)c1 — lower, 162 to 163 °C
- CCCCCCCCCCNCC(O)CO (configuration not stated) — lower, 65 to 67 °C
- Clc1nc(NC2CC2)nc(C2CC2)n1 — lower, 66 to 67 °C
- Cc1nc(Nc2ccc(Cl)cc2)sc1-c1nc2ccccc2c(=O)n1-c1ccccc1 — higher, 230 to 232 °C
- C[C@@H]1N(C(=O)OC(C)(C)C)C(=O)C[C@]1(C)O — lower, 122 to 125 °C
- COC(=O)c1ccc2cc(CCCCCc3cc4ccc(C(=O)OC)cc4o3)oc2c1 — lower, 83 to 85 °C
- CCCCC(=O)c1c(CN2CCOCC2)nc2cc(OC)c(OC)cc2c1-c1ccc(OC)c(OC)c1 — lower, 137 to 138 °C
- CCCON1C(C)(C)CC(NC(=O)C2=C(c3ccccc3)C(c3ccccc3)OC2=O)CC1(C)C (configuration not stated) — lower, 79 to 85 °C
- Cc1ccccc1C(=O)NCC(C)O (configuration not stated) — lower, 78 to 81 °C
- N#Cc1ccc2c(c1)Sc1ccc(Cl)cc1C=C2 — higher, 207 to 210 °C
- COC(=O)CCCCCCNC(=O)C(CSC(C)=O)Cc1ccccc1 (configuration not stated) — lower, 84 to 85 °C
- N#Cc1c(N2CCCCC2)cc(-c2ccc3ccccc3c2)c2c1Cc1ccccc1-2 — lower, 142 to 144 °C
- COc1cccc(-c2cc(-c3ccc(-c4c(Cc5ccccc5)sc5ccccc45)cc3)cc(Br)c2OCC(=O)O)c1 — lower, 88 to 90 °C
- CN(c1cccc2cc(C3=NCC(CN4CCSCC4)S3)[nH]c12)S(=O)(=O)c1ccccn1 (configuration not stated) — lower, 142 to 144 °C
- COc1ccc(NS(=O)(=O)c2ccc(NC3=C(Cl)C(=O)c4ccccc4C3=O)cc2OC)cc1 — lower, 165 to 167 °C
- CC(C)n1c(=O)n(C)c(=O)c2c(SCCCO)n(C3Cc4ccccc4C3)cc21 — lower, 123 to 125 °C
- COc1cc(C)cc(C(=O)O)c1C12OC1C(=O)c1c(O)cccc1C2=O (configuration not stated) — higher, 267 to 268 °C
- CCC1=NNC(C)=C(C(=O)OCCOC(C)C)C1c1cccc([N+](=O)[O-])c1 (configuration not stated) — lower, 84 °C
- COc1ccc2c(c1)OCC21C(=O)N(Cc2cccnc2)c2ccccc21 (configuration not stated) — lower, 164 to 165 °C
- O=C1c2ccc(SCCO)cc2C(=O)c2cc3ccccc3cc21 — higher, 195 to 196 °C
- COc1ccc(-c2ccc(C)nc2-c2ccc(OCCN3CCOCC3)cc2)cc1 — lower, 66 to 67 °C
- Cc1nn(C)c2cc(-c3ccc(F)cc3)nc(-c3ccc4c(c3)OCO4)c12 — lower, 166 to 168 °C
- CC[C@@H](c1ccccc1)N(Cc1ccc(C(=O)OC)c(F)c1)S(=O)(=O)c1ccc(Cl)cc1 — lower, 96 to 98 °C
- CCOC(=O)c1cc(OC)c(OCC)c(OCC)c1-c1c(C(=O)OCC)cc(OC)c2c1OCO2 — lower, 73 to 74.5 °C
- CC(=O)N1CCC(C(=O)N2CC[C@@H](N(C)C(=O)c3ccc(C(F)(F)F)cc3)[C@H](c3ccc(Cl)c(Cl)c3)C2)CC1 — lower, 122 °C
- CC(c1ccc(Cl)cc1Cl)n1nc(C(=O)O)cc1-c1ccc(Cl)cc1 (configuration not stated) — lower, 80 °C
- CC(C)N1C(=O)c2cnc(-c3ccccc3)nc2N(C(=O)CCl)c2ccccc21 — higher, 204 to 205 °C
- CCOC(=O)CC1CC2C(CCC3(C)C(=O)CCC23)c2ccc(O)cc21 (configuration not stated) — lower, 138 °C
- CC(C)C1CC(=O)C(c2ccccn2)C(=O)C1 (configuration not stated) — lower, 110 to 112 °C
- OCCn1cc(-c2ccc3ncn(Cc4ccc5ncccc5c4)c3n2)cn1 — lower, 160 to 163 °C
- CC(C)(C)OC(=O)COc1cc(NC(=O)OC(C)(C)C)c(NC(=O)CC(=O)c2cccc(C#N)c2)cc1C#Cc1ccccc1 — lower, 95 °C
- Fc1ccc2c(C3=CCN(CC4COc5ccc6[nH]c(C(F)(F)F)nc6c5O4)CC3)c[nH]c2c1 (configuration not stated) — higher, 215 to 220 °C
- O=C(NCc1ccccc1Cl)c1ccccc1CN1C(=O)C2(COc3cc4c(cc32)CCO4)c2ccccc21 (configuration not stated) — lower, 148 to 150 °C
- Cc1cc(C)cc(-c2nc(NC(=O)C(C)C)sc2-c2ccncc2)c1 — higher, 270 to 272 °C
- CCCCn1nc(C(N)=O)cc1CC — lower, 60 to 61 °C
- O=C(O)Cc1c(Cl)nc(-c2ccc(O)cc2)n1Cc1ccccc1 — lower, 140 to 145 °C
- CC(C)NC1=NS(=O)(=O)c2sc(Br)c(Br)c2N1 — higher, 250 to 251 °C
- COc1ccc(NCc2c(F)c(F)c(C(F)(F)F)c(F)c2F)cc1C(=O)O — lower, 94 °C
- CCCCCCCCCCCCCCc1cc(C(=O)OCC)c[nH]1 — lower, 59 to 62 °C
- CCc1c(NC(=O)c2ccc(-c3ccc(F)cc3)cc2)ccc2cc(CN3CCCC3)cnc12 — higher, 258 to 260 °C
- Cc1oc(-c2ccccc2)nc1CCOc1ccc(CC(F)(C(=O)NS(C)(=O)=O)c2ccccc2)cc1 (configuration not stated) — lower, 118 to 120 °C
- O=C(Cl)c1c(Cl)c(Cl)c(Cl)c(Cl)c1CCl — lower, 77 to 78 °C
- Cc1cc(Oc2ccsc2C(F)(F)F)nc(-c2ccc(C(F)(F)F)cc2)c1 — lower, 52.5 to 55.5 °C
- CCC[C@@H]1CCC[C@H](NC(=O)OC(C)(C)C)C(=O)N1 — lower, 114 to 116 °C
- CC(O)CNc1c(Br)cnc2cc(Cl)ccc12 (configuration not stated) — lower, 161 to 163 °C
- O=C(c1ccc(Cl)cc1)c1cccc(Br)n1 — lower, 83.5 to 84 °C
- COc1ccc(N2CCCn3c2nc2c(Cl)ccc(C(OCC(F)(F)F)C4CC4)c23)c(C)c1 (configuration not stated) — lower, 157 to 158 °C
- S=c1[nH]ccn1CCc1cccs1 — lower, 131 to 134 °C
- CC(=O)NCC[C@@H]1CCc2ccc3nn(C)c(Cl)c3c21 — lower, 168 to 171 °C
- O=C(N1CC2CC(C1)c1ccccc12)C(F)(F)F — lower, 67 to 68 °C
- Cn1cc(-c2cccc(N3Cc4cc(C(C)(C)C)ccc4C3=O)c2CO)cc(Nc2ccncn2)c1=O — higher, 216 to 218 °C
- O=S(=O)(c1ccccc1)N(CCCN1CC=C(c2ccccc2)CC1)c1ccccc1 — lower, 112 °C
- CCOCCOc1ccc2c(c1)C(CNS(=O)(=O)CC)CC(C)(C)O2 (configuration not stated) — lower, 70 to 72 °C
- O=C[C@H](OCc1ccccc1)[C@@H](OCc1ccccc1)[C@@H](O)COCc1ccccc1 — lower, 68 to 73 °C
- Cc1nc2c3c(ccn2c1C)C(=O)C(O)C(c1ccccc1)N3 (configuration not stated) — higher, 232 to 234 °C
- C=C(c1ccsc1C(=O)O)c1cc(C(C)(C)C)cc2c1CCC2(C)C — lower, 146 to 148 °C
- CCCc1nc(SC)nc(O)c1Cc1ccc(-c2ccccc2C#N)cc1 — higher, 218 °C
- O=C1[C@H]2CCC[C@H]2N(C(=O)Cn2cnc3ccccc32)c2ccccc2N1Cc1ccccc1 (relative stereo) — higher, 188 to 189 °C
- COc1ccc(C(=O)Nc2c(Cl)cncc2Cl)c2c1OCC2CC(=O)O (configuration not stated) — higher, 259 to 263 °C
- CCOc1cc(OCCCc2cn(-c3cc(C(F)(F)F)ccn3)nc2OCC)ccc1CCC(=O)O — lower, 119 to 120 °C
- CCCCN(Cc1ccc(-c2ccccc2-c2nc(=O)o[nH]2)cc1)c1ncncc1C(=O)OCC — lower, 65 to 69 °C
- O=C(Nc1ccc(C(=O)N2CCc3sc(Cc4c[nH]cn4)nc3-c3ccccc32)cc1)c1ccccc1-c1ccccc1 — higher, 192 to 195 °C
- Cc1nc(-c2ccccc2)nc(-c2cccc([N+](=O)[O-])c2)c1CNC(N)=S — higher, 227 to 229 °C
- CCOC(=O)c1cc(=O)c2c(OCC(O)COc3ccc(CC)cc3)cccc2o1 (configuration not stated) — lower, 80 to 85 °C
- CN(C)CC1CNc2cc(Cl)ccc2C1 (configuration not stated) — lower, 107 to 110 °C
- Cc1cccc(C)c1NC(=O)N=C1N(C)CC(=O)N1C — lower, 116 to 118 °C
- Cc1nc2ccc3c(c2o1)O[C@@H](CN[C@H]1CC[C@@H](c2c[nH]c4ccc(F)cc42)CC1)CO3 — lower, 80 to 82 °C
- CC(C)(C)OC(=O)N1CCC(c2nc3cc(-c4ccc(S(C)(=O)=O)cc4F)ccc3[nH]2)CC1 — lower, 88 to 92 °C
- COC(=O)C[C@H](Br)C(N)=O — lower, 82 to 84 °C
- CN(C)C(=O)C(Cc1ccccc1)NC(=O)Nc1n[nH]c(=S)s1 (configuration not stated) — higher, 196 to 197 °C
- COC(=O)c1ccc(CN2N=C(c3ccc(OC)c(OC)c3)[C@@H]3CCCC[C@@H]3C2=O)cc1 (relative stereo) — lower, 90 to 92 °C
- CCCn1c(=Nc2ccccc2)sc2ncccc2c1=O — lower, 94 to 95 °C
- CC#CC1(O)CCC2C3CCC4=CC(=O)CCC4C3C(=CF)CC21CC (configuration not stated) — higher, 199 to 205 °C
- Cc1nnc(-c2ccc(Cl)c([N+](=O)[O-])c2)[nH]1 — lower, 168 °C
- CC(=O)ON=C(O)c1cc(C(O)=NCCO)c(C(=O)O)cc1C(=O)O — higher, 194 to 195 °C
- CCOC(=O)C1=C(C)NC(CN2C(=O)c3ccccc3C2=O)=C(C(=O)OCC)C1c1ccccc1Cl (configuration not stated) — lower, 166 °C
- CCn1c2ccc3ccccc3c2c2cccc(C=O)c21 — lower, 148 to 149 °C
- CCCCNC(=O)CSc1nc(Cl)cc(Cl)n1 — lower, 109 to 111 °C
- N#CCOC(=O)CCCCc1c[nH]c2ccccc12 — lower, 76 °C
- O=C1CNc2ccccc2CN1 — lower, 167 to 170 °C
- O=C(Cc1ccccc1C(F)(F)F)c1c(O)c2cccnc2n(-c2ccccc2)c1=O — lower, 140 to 142 °C
- Cc1nc(C(=O)O)c(OCc2ccccc2)c(=O)n1C — higher, 180 to 181 °C
